In US20250223281A1, “ANTIDIABETIC COMPOUNDS AND COMPOSITIONS” (REZUBIO PHARMACEUTICALS CO., LTD, priority 2022, published 2025) one finds EC50 data, which are given here for 32 compounds.

Usually EC50 stands for the midpoint of the concentration-response curve. Lower therefore signals an effect from little substance.

The target in this assay is T1, GPR40 (Homo sapiens, UniProt O14842).
T1 construct: expressed in transfected cells; host or cells: HEK293 cells stably expressing GPR40 (Hygromycin selection)
T1 sequence (O14842 whole entry): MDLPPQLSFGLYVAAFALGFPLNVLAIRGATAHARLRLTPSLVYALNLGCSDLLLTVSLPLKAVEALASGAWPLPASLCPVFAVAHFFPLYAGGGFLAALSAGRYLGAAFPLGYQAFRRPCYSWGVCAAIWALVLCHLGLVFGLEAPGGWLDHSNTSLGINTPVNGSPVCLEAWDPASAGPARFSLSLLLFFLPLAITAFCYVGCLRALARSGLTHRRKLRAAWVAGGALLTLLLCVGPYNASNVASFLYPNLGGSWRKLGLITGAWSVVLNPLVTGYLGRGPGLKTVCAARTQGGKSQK
As to the kind of experiment: IP1 accumulation assay in HEK293 cells stably expressing GPR40. The format is cell-based. The method, then:
IP1 accumulation assay was used to evaluate the potency of compounds. HEK293 cells stably expressing GPR40 were cultured in 5% CO2 incubator (ThermoFisher) in maintenance media (Dulbecco's modified Eagle's medium with 4.5 g/L of glucose, 10% fetal bovine serum, 100 μg/mL Hygromycin, and Penicillin (100 U/mL)/Streptomycin (100 μg/mL)) till 100% confluency. Cells were harvested freshly, spun down at 300×g for 5 min, and resuspended in pre-warmed 1× stimulant buffer from Cisbio IP-One HTRF Detection kit (Cisbio). Cell density was adjusted to 2.0×10^6 cells/mL. DMSO was used as blank control and AMG-1638 (CAS #: 1142214-62-7) as positive control. Compounds were prepared at 10 mM in DMSO and 5 nL of 3× serially diluted compounds (10 concentrations) were added to each well of the 384-LDV assay plate (Corning) by using ECHO 550 (Labcyte). Five μL of cells in suspension were transferred into each well by using Multidrop Combi Reagent Dispenser (ThermoFisher). Assay plate was then sealed and incubated at 37° C. for 2 hours. IP-d2 reagent and anti-IP1 reagent were prepared following the manual (Cisbio). Five μL of IP1-d2 and then 5 μL of anti-IP1 antibody was added to each well sequentially. Assay plate was incubated at room temperature for 60 min and then read at 665 nm/615 nm on an Envision plate reader (PerkinElmer). The ratio of values obtained at 665 nm and 615 nm was used for calculation of IP1 accumulation: % Effect=(Ratiosample−Ratioblank)/(RatioAMG-1638−Ratioblank)×100. Dose curve was fitted and EC50 of each compound was calculated by using XLFit.

The mark [1] stands for this setting: IP1 accumulation, HEK293 cells stably expressing GPR40, 2 hours at 37° C., % effect relative to AMG-1638, table of Biological Example 1.
Where [2] appears, read: Tables A-1a to A-7b (structure-property relationship), obtained by methods of Biological Example 1.

For `COc1ccc(C(=O)N(CC(C)(C)CCCCCCn2cc(CCCCCCCCCCC(=O)NCCN(CCC(=O)NCCN)CCC(=O)NCCN)nn2)c2cccc(C)n2)c(N2CCC(COc3cc([C@@H](CC(=O)O)C4CC4)ccn3)CC2)c1` [Example 68], the EC50 was 1 nM under setting [1] and 1.79 nM under setting [2].

`C[C@H](C(=O)O)[C@H](c1ccc2c(c1)O[C@@H](C1CCN(Cc3cc(-n4cc(CCCCCCCCCCCCCCCCCC(=O)NCC[N+](C)(C)C)nn4)ccc3OC(F)(F)F)CC1)CC2)C1CC1` [Example 70] yielded an EC50 under setting [1] of 0.43 nM. `C[C@H](C(=O)O)[C@H](c1ccc2c(c1)O[C@@H](C1CCN(Cc3cc(-n4cc(CCCCCCCCCCCCCCC(=O)NCC[N+](C)(CCC(=O)NCCN)CCC(=O)NCCN)nn4)ccc3OC(F)(F)F)CC1)CC2)C1CC1` [Example 72] returned an EC50 under setting [1] of 6.74 nM and an EC50 under setting [2] of 6.74 nM.

For `COc1ccc(C(=O)N(CC(C)(C)CCCCCCn2cc(CCCCCCCCCCCCCCCCCC(=O)NCC[N+](C)(C)CCCS(=O)(=O)[O-])nn2)c2cccc(C)n2)c(N2CCC(COc3cc([C@@H](CC(=O)O)C4CC4)ccn3)CC2)c1` [Example 73], under setting [1], a half-maximal response (EC50) required 0.1 nM. As to `COc1ccc(C(=O)N(CC(C)(C)CCCCCCn2cc(CCCCCCCCCCC(=O)NCCN(CCC(=O)NCCN)CCC(=O)NCCN)nn2)c2cccc(C)n2)c(N2CCC(COc3cc([C@@H](CC(=O)O)C4CC4)ccn3)CC2)c1` [Example 74], the EC50 reads like this: under setting [1], 2.99 nM; under setting [2], 2.99 nM. In the case of `COc1ccc(C(=O)N(CC(C)(C)CCCCCCn2cc(CCCCCCCCC(=O)NCCN(CCC(=O)NCCN)CCC(=O)NCCN)nn2)c2cccc(C)n2)c(N2CCC(COc3cc([C@@H](CC(=O)O)C4CC4)ccn3)CC2)c1` [Example 75], the EC50 turned out to be 0.75 nM under setting [1] and 1.92 nM under setting [2]. `CCCCCNC(=O)CCCCCCCCCCCCCCCCCc1cn(CC(C)(C)Cc2cc(COc3cccc([C@@H](CC(=O)O)C4CC4)c3)ccc2-c2cc(OC)ccc2F)nn1` [Example 76] yielded a concentration for a half-maximal effect (EC50) under setting [1] of 112 nM. As to `C[C@H](C(=O)O)[C@H](c1ccc2c(c1)O[C@@H](C1CCN(Cc3cc(-c4cn(CCCCCCCCCC(=O)NCCN(CCC(=O)NCCN)CCC(=O)NCCN)nn4)ccc3OC(F)(F)F)CC1)CC2)C1CC1` [Example 77], the EC50 reads like this: under setting [1], 8400 nM; under setting [2], over 10000 nM. The matching figures for `C[C@H](C(=O)O)[C@H](c1ccc2c(c1)O[C@@H](C1CCN(Cc3cc(-n4cc(CCCCCCCCCCCCCC(=O)NCCN(CCC(=O)NCCN)CCC(=O)NCCN)nn4)ccc3OC(F)(F)F)CC1)CC2)C1CC1` [Example 78]: 1.4 nM and 1.4 nM. Compound `C[C@H](C(=O)O)[C@H](c1ccc2c(c1)O[C@@H](C1CCN(Cc3cc(-n4cc(CCCCCCCCCCC(=O)NCCN(CCC(=O)NCCN)CCC(=O)NCCN)nn4)ccc3OC(F)(F)F)CC1)CC2)C1CC1` [Example 79] displayed an EC50 under setting [1] of 183 nM and an EC50 under setting [2] of 183 nM.

Turning to `C[C@H](C(=O)O)[C@H](c1ccc2c(c1)O[C@@H](C1CCN(Cc3cc(-n4cc(CCCCCCCCC(=O)NCCN(CCC(=O)NCCN)CCC(=O)NCCN)nn4)ccc3OC(F)(F)F)CC1)CC2)C1CC1` [Example 80], the concentration for a half-maximal effect (EC50) is over 5000 nM under setting [1] and over 5000 nM under setting [2]. Turning to `COc1ccc(F)c(-c2ccc(COc3cccc([C@@H](CC(=O)O)C4CC4)c3)cc2CC(C)(C)Cn2cc(CCCCCCCCCCCCCCCCCC(=O)NCCCN(CC(=O)O)CC(=O)O)nn2)c1` [Example 81], under setting [1], the midpoint of the response, the EC50, lay at 2.2 nM. As to `C[C@H](C(=O)O)[C@H](c1ccc2c(c1)O[C@@H](C1CCN(Cc3cc(-c4cn(CCCCCCCCCC(=O)NCC[N+](C)(CCC(=O)NCCN)CCC(=O)NCCN)nn4)ccc3OC(F)(F)F)CC1)CC2)C1CC1` [Example 82], the EC50 is over 10000 nM under setting [1] and over 10000 nM under setting [2]. In the case of `C[C@H](C(=O)O)[C@H](c1ccc2c(c1)O[C@@H](C1CCN(Cc3cc(-c4cn(CCCCCCCCCCCC(=O)NCC[N+](C)(CCC(=O)NCCN)CCC(=O)NCCN)nn4)ccc3OC(F)(F)F)CC1)CC2)C1CC1` [Example 83], the EC50 by setting is: under setting [1], 651 nM; under setting [2], 650 nM. The compound `C[C@H](C(=O)O)[C@H](c1ccc2c(c1)O[C@@H](C1CCN(Cc3cc(-c4cn(CCCCCCCCCCCCCCCC(=O)NCC[N+](C)(CCC(=O)NCCN)CCC(=O)NCCN)nn4)ccc3OC(F)(F)F)CC1)CC2)C1CC1` [Example 84] registered an EC50 under setting [1] of 0.74 nM and an EC50 under setting [2] of 0.74 nM. `CCCCCOC(=O)CCCCCCCCCCCCCCCCCc1cn(CC(C)(C)Cc2cc(COc3cccc([C@@H](CC(=O)O)C4CC4)c3)ccc2-c2cc(OC)ccc2F)nn1` [Example 85] registered an EC50 under setting [1] of over 1300 nM. With `C[C@H](C(=O)O)[C@H](c1ccc2c(c1)O[C@@H](C1CCN(Cc3cc(-n4cc(CCCCCCCCCCC(=O)NCC[N+](C)(CCC(=O)NCCN)CCC(=O)NCCN)nn4)ccc3OC(F)(F)F)CC1)CC2)C1CC1` [Example 86], the EC50 runs as follows: under setting [1], 195 nM; under setting [2], 195 nM. `COc1ccc(F)c(-c2ccc(COc3cccc([C@@H](CC(=O)O)C4CC4)c3)cc2C(C)(C)c2cn(CCCCCCCCCCCC(=O)NCC[N+](C)(CCC(=O)NCCN)CCC(=O)NCCN)nn2)c1` [Example 87] gave an EC50 under setting [1] of over 2700 nM. Still for that read-out and setting: in the case of `COc1ccc(F)c(-c2ccc(COc3cccc([C@@H](CC(=O)O)C4CC4)c3)cc2OC(C)(C)Cn2cc(CCCCCCCCCCCCCC(=O)NCCN(CCC(=O)NCCN)CCC(=O)NCCN)nn2)c1` [Example 88] it was 22.8 nM. For the compound `COc1ccc(F)c(-c2ccc(COc3cccc([C@@H](CC(=O)O)C4CC4)c3)cc2CC(C)(C)Cc2cn(CCCCCCCCCCCCCCCC(=O)NCCN(CCC(=O)NCCN)CCC(=O)NCCN)nn2)c1` [Example 89], the EC50 by setting is: under setting [1], 2.19 nM; under setting [2], 2.19 nM. On to `COc1ccc(F)c(-c2ccc(COc3cccc([C@@H](CC(=O)O)C4CC4)c3)cc2CC(C)(C)Cc2cn(CCCCCCCCCCCCCCCC(=O)NCC[N+](C)(CCC(=O)NCCN)CCC(=O)NCCN)nn2)c1` [Example 90], for which the half-maximal effective concentration (EC50) reads like this: under setting [1], 2.6 nM; under setting [2], 2.6 nM. `COc1ccc(F)c(-c2ccc(COc3cccc([C@@H](CC(=O)O)C4CC4)c3)cc2CC(C)(C)Cc2cn(CCCCCCCCCCCCCCCCCC(=O)NCC[N+](C)(C)CCCS(=O)(=O)O)nn2)c1` [Example 91] registered an EC50 under setting [1] of 1.52 nM. Consider `COc1ccc(F)c(-c2ccc(COc3cccc([C@@H](CC(=O)O)C4CC4)c3)cc2CC(C)(C)Cc2cn(CCCCCCCCCCCC(=O)NCCN(CCC(=O)NCCN)CCC(=O)NCCN)nn2)c1` [Example 92], for which the EC50 reads like this: under setting [1], 212 nM; under setting [2], 212 nM. Regarding `COc1ccc(F)c(-c2ccc(COc3cccc([C@@H](CC(=O)O)C4CC4)c3)cc2CC(C)(C)Cn2cc(CCCCCCCCCCCCCCCCCC(=O)NCCC[N+](C)(CC(=O)O)CC(=O)O)nn2)c1` [Example 93], the midpoint of the response under setting [1], the EC50, lay at 4.58 nM. `COc1ccc(F)c(-c2ccc(COc3cccc([C@@H](CC(=O)O)C4CC4)c3)cc2CC(C)(C)Cn2cc(CCCCCCC(=O)NCCN(CCC(=O)NCCN)CCC(=O)NCCN)nn2)c1` [Example 94]: the EC50 runs as follows: under setting [1], 1950 nM; under setting [2], 1950 nM. Turning to `COc1ccc(F)c(-c2ccc(COc3cccc([C@@H](CC(=O)O)C4CC4)c3)cc2CC(C)(C)Cn2cc(CCCCCCC(=O)NCC[N+](C)(CCC(=O)NCCN)CCC(=O)NCCN)nn2)c1` [Example 95], the EC50 was over 10000 nM under setting [1] and over 10000 nM under setting [2]. Turning to `COc1ccc(F)c(-c2ccc(COc3cccc([C@@H](CC(=O)O)C4CC4)c3)cc2CC(C)(C)Cc2cn(CCCCCCCCCC(=O)NCC[N+](C)(CCC(=O)NCCN)CCC(=O)NCCN)nn2)c1` [Example 96], the concentration giving a half-maximal response (EC50) by setting is: under setting [1], 1050 nM; under setting [2], 1050 nM. In the case of `COc1ccc(F)c(-c2ccc(COc3cccc([C@@H](CC(=O)O)C4CC4)c3)cc2CC(C)(C)Cc2cn(CCCCCCCCCCCC(=O)NCC[N+](C)(CCC(=O)NCCN)CCC(=O)NCCN)nn2)c1` [Example 97], the EC50 under setting [1] is 328 nM and it took 328 nM to reach a half-maximal effect under setting [2] (EC50).

The compound `COc1ccc(C(=O)N(CC(C)(C)CCCCCCn2cc(CCCCCCC(=O)NCCN(CCC(=O)NCCN)CCC(=O)NCCN)nn2)c2cccc(C)n2)c(N2CCC(COc3cc([C@@H](CC(=O)O)C4CC4)ccn3)CC2)c1` [Example 98] displayed a 50% effective concentration (EC50) under setting [1] of 3.54 nM and an EC50 under setting [2] of 3.54 nM. Regarding `COc1ccc(C(=O)N(CC(C)(C)CCCCCCn2cc(CCCCCCC(=O)NCC[N+](C)(CCC(=O)NCCN)CCC(=O)NCCN)nn2)c2cccc(C)n2)c(N2CCC(COc3cc([C@@H](CC(=O)O)C4CC4)ccn3)CC2)c1` [Example 99], the EC50 runs as follows: under setting [1], 4.58 nM; under setting [2], 4.58 nM. Regarding `COc1ccc(F)c(-c2ccc(COc3cccc([C@@H](CC(=O)O)C4CC4)c3)cc2CC(C)(C)Cc2cn(CCCCCCCCCCCCCCC(=O)NCC[N+](C)(CCC(=O)NCCN)CCC(=O)NCCN)nn2)c1` [Example 102], the EC50 reads like this: under setting [1], 4.05 nM; under setting [2], 4.05 nM. Under setting [1], `COc1ccc(F)c(-c2ccc(COc3cccc([C@@H](CC(=O)O)C4CC4)c3)cc2C(C)(C)c2cn(CCCCCCCCCCCCCCCC(=O)NCC[N+](C)(CCC(=O)NCCN)CCC(=O)NCCN)nn2)c1` [Example 103] had an EC50 of 21.5 nM.
